The numbers were not newly measured in patent US20220387439A1, “ANTI-INFLAMMATORY PHARMACEUTICAL COMPOSITION COMPRISING PROBIOTICS AND ANTIBIOTICS, AND METHOD USING SAME” (priority 2019, published 2022), which cites them from elsewhere.

The data set relates to patient with otitis media. The settings on record: Patient 1, otitis media for more than several years; antibiotics taken at other hospitals.

Structures are written as SMILES.

As for `N[C@@H](C(=O)N[C@@H]1C(=O)N2C(C(=O)O)=C(Cl)CS[C@H]12)c1ccccc1` [cefaclor], the “treatment effect of antibiotics taken earlier” value is “no treatment effect”.
